Target: T1, Human macrophage mannose receptor 1 (MRC1) (Homo sapiens, UniProt P22897)
T1 sequence (P22897 19-1456): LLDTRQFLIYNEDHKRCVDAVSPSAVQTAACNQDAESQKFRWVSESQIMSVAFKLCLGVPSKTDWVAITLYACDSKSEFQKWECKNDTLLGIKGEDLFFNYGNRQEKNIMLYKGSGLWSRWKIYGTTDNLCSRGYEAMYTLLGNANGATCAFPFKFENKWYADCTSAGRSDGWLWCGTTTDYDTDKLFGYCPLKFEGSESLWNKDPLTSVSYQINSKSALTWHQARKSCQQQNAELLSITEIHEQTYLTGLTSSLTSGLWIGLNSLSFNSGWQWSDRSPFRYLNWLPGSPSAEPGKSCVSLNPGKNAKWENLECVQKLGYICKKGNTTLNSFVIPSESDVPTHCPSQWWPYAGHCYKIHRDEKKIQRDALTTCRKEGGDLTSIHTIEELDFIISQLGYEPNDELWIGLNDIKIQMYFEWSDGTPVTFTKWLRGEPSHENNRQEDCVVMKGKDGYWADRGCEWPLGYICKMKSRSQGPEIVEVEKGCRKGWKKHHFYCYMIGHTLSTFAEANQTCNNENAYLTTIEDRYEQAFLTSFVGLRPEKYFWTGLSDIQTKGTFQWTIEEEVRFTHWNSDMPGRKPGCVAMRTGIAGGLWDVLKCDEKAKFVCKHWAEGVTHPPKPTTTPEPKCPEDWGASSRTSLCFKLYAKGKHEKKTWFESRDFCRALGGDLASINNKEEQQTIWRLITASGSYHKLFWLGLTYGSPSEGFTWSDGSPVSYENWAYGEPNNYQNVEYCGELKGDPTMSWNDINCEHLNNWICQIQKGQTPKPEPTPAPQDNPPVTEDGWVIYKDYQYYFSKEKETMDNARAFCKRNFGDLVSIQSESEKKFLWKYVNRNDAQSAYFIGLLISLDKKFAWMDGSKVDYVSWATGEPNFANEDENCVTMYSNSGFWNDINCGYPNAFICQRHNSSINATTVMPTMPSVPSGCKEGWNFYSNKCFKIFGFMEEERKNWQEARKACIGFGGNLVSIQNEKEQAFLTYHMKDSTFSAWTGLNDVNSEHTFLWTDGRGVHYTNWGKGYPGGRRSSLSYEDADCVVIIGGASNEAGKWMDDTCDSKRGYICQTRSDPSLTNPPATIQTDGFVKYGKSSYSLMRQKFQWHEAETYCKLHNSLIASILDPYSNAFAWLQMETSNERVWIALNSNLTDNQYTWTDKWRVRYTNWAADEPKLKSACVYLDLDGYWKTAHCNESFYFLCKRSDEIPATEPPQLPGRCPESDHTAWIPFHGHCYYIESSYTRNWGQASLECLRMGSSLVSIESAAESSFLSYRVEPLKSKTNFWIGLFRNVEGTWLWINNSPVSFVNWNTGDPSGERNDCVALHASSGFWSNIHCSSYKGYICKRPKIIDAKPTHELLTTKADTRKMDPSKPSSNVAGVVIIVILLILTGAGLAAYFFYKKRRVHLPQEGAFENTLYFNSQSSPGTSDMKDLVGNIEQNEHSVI
Test: MRC1 competition binding assay (Eu-mannosylated-BSA), Method F: 96-well, manual liquid dispense
Conditions: read-out: MRC1 Binding IP (inflection point, corresponds to IC50)
Description: The competition binding assay for MRC1 utilized a ligand, mannosylated-BSA labeled with the DELFIA Eu-N1-ITC reagent, as reported in the literature. […] The antibody was incubated in the plate for 1 hr at room temperature with shaking. The plate was washed with wash buffer 3-5 times followed by addition of MRC1 (2 ng/μl final concentration) in 25 μl PBS containing 1% stabilizer BSA. The plate was incubated at room temperature with gentle shaking for 1 hr. The plate was washed three times with wash buffer. […]
Their in vitro biological activities towards insulin receptor (IR) were measured by either ligand competition assays or functional phosphorylation assays, as described above, labeled as following: Method A: IR phosphorylation assay based on 96-well with manual liquid dispense; Method B: IR phosphorylation assay based on 96-well with automated liquid dispense; Method C: IR phosphorylation assay based on 384-well with automated liquid dispense; Method D: IR binding assay method D; Method E: IR binding assay method E; Method F: MRC1 assay was performed in a 96-well plate with a manual liquid dispense; Method G: MRC1 assay was performed in a 96-well plate with an automated liquid dispense; Method H: MRC1 assay was performed in a 384-well plate with an automated dispense.

## CC[C@H](C)[C@H](NC(=O)CN)C(=O)N[C@H](C(=O)N[C@@H](CCC(=O)O)C(=O)N[C@@H](CCC(N)=O)C(=O)N[C@H]1CSSC[C@@H]2NC(=O)[C@H]([C@@H](C)CC)NC(=O)[C@H](CO)NC(=O)[C@H]([C@@H](C)O)NC(=O)[C@H](CSSC[C@H](NC(=O)[C@H](CC(C)C)NC(=O)[C@H](Cc3c[nH]cn3)NC(=O)[C@H](CCC(N)=O)NC(=O)[C@H](CC(N)=O)NC(=O)[C@@H](NC(=O)[C@@H](N)Cc3ccccc3)C(C)C)C(=O)NCC(=O)N[C@@H](CO)C(=O)N[C@@H](Cc3c[nH]cn3)C(=O)N[C@@H](CC(C)C)C(=O)N[C@@H](C(C)C)C(=O)N[C@@H](CCC(=O)O)C(=O)N[C@@H](C)C(=O)N[C@@H](CC(C)C)C(=O)N[C@@H](Cc3ccc(O)cc3)C(=O)N[C@@H](CC(C)C)C(=O)N[C@@H](C(C)C)C(=O)N[C@H](C(=O)NCC(=O)N[C@@H](CCC(=O)O)C(=O)N[C@@H](CCCNC(=N)N)C(=O)NCC(=O)N[C@@H](Cc3ccccc3)C(=O)N[C@@H](Cc3ccccc3)C(=O)N[C@@H](Cc3ccc(O)cc3)C(=O)N[C@H](C(=O)N3CCC[C@H]3C(=O)N[C@@H](CCCCNC(=O)CCCCC(=O)N(CC(=O)NCCO[C@@H]3O[C@@H](C)[C@@H](O)[C@@H](O)[C@@H]3O)CC(=O)NCCO[C@@H]3O[C@@H](C)[C@@H](O)[C@@H](O)[C@@H]3O)C(=O)N[C@H](C(=O)O)[C@@H](C)O)[C@@H](C)O)CSSC[C@@H](C(=O)N[C@@H](CC(N)=O)C(=O)O)NC(=O)[C@H](Cc3ccc(O)cc3)NC(=O)[C@H](CC(N)=O)NC(=O)[C@H](CCC(=O)O)NC(=O)[C@H](CC(C)C)NC(=O)[C@H](CCC(N)=O)NC(=O)[C@H](Cc3ccc(O)cc3)NC(=O)[C@H](CC(C)C)NC(=O)[C@H](CO)NC2=O)NC1=O)C(C)C [IOC-12]
  IC50: 92.5 nM

## CC[C@H](C)[C@H](NC(=O)CNC(=O)CCCCC(=O)N(CC(=O)NCCO[C@@H]1O[C@@H](C)[C@@H](O)[C@@H](O)[C@@H]1O)CC(=O)NCCO[C@@H]1O[C@@H](C)[C@@H](O)[C@@H](O)[C@@H]1O)C(=O)N[C@H](C(=O)N[C@@H](CCC(=O)O)C(=O)N[C@@H](CCC(N)=O)C(=O)N[C@H]1CSSC[C@@H]2NC(=O)[C@H]([C@@H](C)CC)NC(=O)[C@H](CO)NC(=O)[C@H]([C@@H](C)O)NC(=O)[C@H](CSSC[C@H](NC(=O)[C@H](CC(C)C)NC(=O)[C@H](Cc3c[nH]cn3)NC(=O)[C@H](CCC(N)=O)NC(=O)[C@H](CC(N)=O)NC(=O)[C@@H](NC(=O)[C@@H](N)Cc3ccccc3)C(C)C)C(=O)NCC(=O)N[C@@H](CO)C(=O)N[C@@H](Cc3c[nH]cn3)C(=O)N[C@@H](CC(C)C)C(=O)N[C@@H](C(C)C)C(=O)N[C@@H](CCC(=O)O)C(=O)N[C@@H](C)C(=O)N[C@@H](CC(C)C)C(=O)N[C@@H](Cc3ccc(O)cc3)C(=O)N[C@@H](CC(C)C)C(=O)N[C@@H](C(C)C)C(=O)N[C@H](C(=O)NCC(=O)N[C@@H](CCC(=O)O)C(=O)N[C@@H](CCCNC(=N)N)C(=O)NCC(=O)N[C@@H](Cc3ccccc3)C(=O)N[C@@H](Cc3ccccc3)C(=O)N[C@@H](Cc3ccc(O)cc3)C(=O)N[C@H](C(=O)N3CCC[C@H]3C(=O)N[C@@H](CCCCN)C(=O)N[C@H](C(=O)O)[C@@H](C)O)[C@@H](C)O)CSSC[C@@H](C(=O)N[C@@H](CC(N)=O)C(=O)O)NC(=O)[C@H](Cc3ccc(O)cc3)NC(=O)[C@H](CC(N)=O)NC(=O)[C@H](CCC(=O)O)NC(=O)[C@H](CC(C)C)NC(=O)[C@H](CCC(N)=O)NC(=O)[C@H](Cc3ccc(O)cc3)NC(=O)[C@H](CC(C)C)NC(=O)[C@H](CO)NC2=O)NC1=O)C(C)C [IOC-13]
  IC50: 107 nM

Reference: patent US9884125B2, “Glucose-responsive insulin conjugates” (Merck Sharp & Dohme Corp., priority 2013, dated 2018)
